Data from patent publication US8969395B2, “Triterpenoid derivatives useful as antiproliferative agents” (Universidade de Coimbra, priority 2009, dated 2015).

Key:
[1] = tested on: HeLa (human cervical adenocarcinoma); assay: Cytotoxic activity, MTT assay, HeLa; format: cell-based; details: 72 h, mean ±SD
Description: (§1) The cytotoxic of compounds of formulas (I) and (II) 14-50 was assessed towards human cancer (HepG2, HeLa and Jurkat) cell lines (Table 3 below). Compounds presented on Table 4 were also tested against a non-tumoral liver cell line (Chang liver). The cell viability of HeLa, HepG2 and Chang liver cells was determined by the MTT assay. Briefly, exponentially growing cells were plated in 96-well plates at a density of 1×10^3, 8×10^3 and 5×10^3 cells/well respectively and incubated for 24 h before treatment. The grown medium was replaced with one contained the tested compounds dissolved in DMSO (final DMSO concentration <0.1%) at different concentrations, in triplicate wells, and cells were incubated for 72 h. After incubation with the compounds, the medium was removed and MTT solution (0.5 mg/ml, 100 μl) was added to each well and the plates were incubated again for 1 h. DMSO (100 μl) was then added to dissolve the formazan crystals and the plates were immediately read at 550 nm on an ELISA plate reader (Tecan Sunrise MR20-301, TECAN, Austria). For the Jurkat cells, the cell viability was determined by the XTT assay. Briefly, exponentially growing cells were plated in 96-well plates at a density of 5.5×10^3 cells/well, treated with different concentrations of compounds in triplicate and incubated for 72 h. After incubation with the compounds the XTT labeling mixture (100 μl) were added to each of the wells and after a 4 h incubation period the plates were read at 450 nm on an ELISA plate reader. […] Known for its cytotoxic activity, betulinic acid 2 was used as a positive control in this experimentation.

Jurkat (human leukemia) = assay: Cytotoxic activity, XTT assay, Jurkat; format: cell-based; details: 72 h, mean ±SD
Description: as §1, with “experimentation. […] All the IC50 results represent an average of a minimum of three experiments and were expressed as means±standard deviation (SD).” for “experimentation.”

[2] = tested on: Chang liver (human normal liver cells); assay: Cytotoxic activity against non-tumoral cell line, MTT assay; format: cell-based; details: 72 h, mean ±SD
Description: as §1, with “experimentation. […] All the IC50 results represent an average of a minimum of three experiments and were expressed as means±standard deviation (SD).” for “experimentation.”

[3] = tested on: PC-3 (human prostate adenocarcinoma); assay: Cytotoxic activity, PC-3; format: cell-based; details: mean ±SD
Description: (§2) Compounds presented in Table 6 were also tested in the following cell lines: PC-3 (human prostate adenocarcinoma), LNCaP (human prostate adenocarcinoma), LAPC4 (human prostate adenocarcinoma) and HT-29 (human colon adenocarcinoma).

[4] = tested on: LNCaP (human prostate adenocarcinoma); assay: Cytotoxic activity, LNCaP; format: cell-based; details: mean ±SD
Description: as §2

[5] = tested on: HepG2 (human hepatocellular carcinoma); assay: Cytotoxic activity, MTT assay, HepG2; format: cell-based; details: mean ±SD
Description: as §1, with “experimentation. […] All the IC50 results represent an average of a minimum of three experiments and were expressed as means±standard deviation (SD).” for “experimentation.”

[6] = tested on: LAPC4 (human prostate adenocarcinoma); assay: Cytotoxic activity, LAPC4; format: cell-based; details: mean ±SD
Description: as §2

[7] = tested on: HT-29 (human colon adenocarcinoma); assay: Cytotoxic activity, HT-29; format: cell-based; details: mean ±SD
Description: as §2

HepG2 cells = assay: Cell cycle analysis by flow cytometry (FACS, PI), HepG2; format: cell-based, human; details: HepG2, compound at its IC50, 72 h
Description: (§3) The effects on the cell cycle of some of these compounds were assessed through flow cytometry by using a fluorescence-activated cell sorter (FACS) (Table 5 below). For this assay 2.3×10^5 HepG2 cells/well, 2.9×10^4 HeLa cells/well, 1.6×10^5 Jurkat cells/well and 1.4×10^5 Chang liver cells/well were plated in 6 well plates with 2 ml of medium. The number of cells was determined by the relationship number of cells/area wells, considering the number of cells that were cultured in 96-well plates. […] Chang liver cells were incubated with compounds 20, […] at concentrations corresponding to the IC80 determined for HepG2 at 72 h. Following 72 h. of incubation, cells were harvested by mild trypsinization, collected by centrifugation and stained in ice-cold Tris-buffered saline (TBS), containing 1 mg/ml PI, 10 mg/ml RNAse free of DNAase and 0.1% Igepal CA-630 for 1 h at 4° C. FACS analysis was carried out at 488 nm in an Epics XL flow cytometer (Coulter Corporation, Hialeah, Fla.). Data from 8×10^3 cells were collected and analyzed using Multicycle program (Phoenix Flow Systems, San Diego, Calif.). All experiments were performed three times with three replicates per experiment. […] To explore the selectivity of the effect on tumor cells, we also tested compounds 20, 44 and 46 in a non-malignant cell line. Chang liver cells were treated with the compounds at the IC80 values determined for HepG2 after 72 h of incubation and no effect was observed, indicating a selective effect of these agents (Table 5 below).

Jurkat cells = assay: Cell cycle analysis by flow cytometry (FACS, PI), Jurkat; format: cell-based, human; details: compound at its IC50, 72 h
Description: as §3

HeLa cells = assay: Cell cycle analysis by flow cytometry (FACS, PI), HeLa; format: cell-based, human; details: compound at its IC50, 72 h
Description: as §3

| Molecule | IC50 [1] | IC50 (Jurkat (human leukemia)) | IC50 [2] | IC50 [3] | IC50 [4] | IC50 ([5]; 72 h) | IC50 [6] | IC50 [7] | other results |
| --- | --- | --- | --- | --- | --- | --- | --- | --- | --- |
| C[C@@H](C=O)[C@@H]1CC[C@]2(COC(=O)n3ccnc3)CC[C@]3(C)[C@H](CC[C@@H]4[C@@]5(C)CC[C@H](O)C(C)(C)[C@@H]5CC[C@]43C)[C@@H]12 [Compound 41, 3β-hydroxy-(20R)-lupan-29-oxo-28-yl-1H-imidazole-1-carboxylate] | 11.1 ± 1.4 µM | 13.7 ± 1.4 µM | 146 ± 4.5 µM | 16.7 ± 2.4 µM | 15.6 ± 2.4 µM | 11.5 ± 1.1 µM | > 30 µM |  |  |
| Cc1nccn1C(=O)OC[C@]12CC[C@@H]([C@@H](C)C=O)C1[C@H]1CC[C@@H]3[C@@]4(C)CC[C@H](O)C(C)(C)[C@@H]4CC[C@@]3(C)[C@]1(C)CC2 (stereo partly drawn) [Compound 42, 3β-hydroxy-(20R)-lupan-29-oxo-28-yl-2′-methyl-1H-imidazole-1-carboxylate] | 16.6 ± 1.5 µM | 21.3 ± 4.1 µM |  |  |  | 14.3 ± 2.4 µM |  | 15.8 ± 1.7 µM |  |
| C=C(C)[C@@H]1CC[C@]2(COC(=O)n3ccnc3)CC[C@]3(C)[C@H](CC[C@@H]4[C@@]5(C)CC[C@H](OC(=O)n6ccnc6)C(C)(C)[C@@H]5CC[C@]43C)[C@@H]12 [Compound 17, Lup-20(29)-en-3β,28-di-yl-(1H-imidazole-1-carboxylate)] | > 30 µM | > 30 µM |  | > 30 µM | 14.4 ± 1.3 µM | > 30 µM | 12.9 ± 1.1 µM |  |  |
| C=C(C)[C@@H]1CC[C@]2(C(=O)O)CC[C@]3(C)[C@H](CC[C@@H]4[C@@]5(C)CC[C@H](O)C(C)(C)[C@@H]5CC[C@]43C)[C@@H]12 [Compound 2, Betulinic acid, reference compound] |  |  |  |  |  |  |  |  | IC50 ([1]; Homo sapiens, HeLa): 26 ± 2.1 µM; Phase of cell cycle (% of cells) G0/G1 (HepG2 cells): 59.7 ± 2.0 % of cells; Phase of cell cycle (% of cells) G2/M (HepG2 cells): 14.3 ± 0.9 % of cells; Phase of cell cycle (% of cells) S (HepG2 cells): 25.9 ± 1.3 % of cells; IC50 (Jurkat (human leukemia); Homo sapiens, Jurkat): 26.9 ± 2.2 µM; IC50 ([2]; Homo sapiens, Chang liver): 92.3 ± 4.1 µM; Phase of cell cycle (% of cells) G0/G1 (Jurkat cells): 56.8 ± 5.0 % of cells; Phase of cell cycle (% of cells) G2/M (Jurkat cells): 24.1 ± 4.7 % of cells; Phase of cell cycle (% of cells) S (Jurkat cells): 18.9 ± 1.2 % of cells; Phase of cell cycle (% of cells) G0/G1 (HeLa cells): 66.8 ± 1.2 % of cells; Phase of cell cycle (% of cells) G2/M (HeLa cells): 11.7 ± 1.1 % of cells; Phase of cell cycle (% of cells) S (HeLa cells): 21.4 ± 0.9 % of cells; IC50 ([5]; Homo sapiens, HepG2, 72 h): 36.4 ± 1.5 µM |
| C=C(C)[C@@H]1CC[C@]2(C(=O)n3ccnc3C)CC[C@]3(C)[C@H](CC[C@@H]4[C@@]5(C)CCC(=O)C(C)(C)[C@@H]5CC[C@]43C)[C@@H]12 [Compound 45, 28-(2′-methyl-1H-imidazol-1-yl)-lup-20(29)-en-3,28-dione] | 4.2 ± 1.2 µM | 9.3 ± 2.2 µM |  |  |  | 5.5 ± 1.1 µM |  | 4.7 ± 1.1 µM |  |
| 3β-(1H-imidazole-2′-methyl-1-carbonyloxy)-lup-20(29)-en-28-oic acid [Compound 29] | 7.5 ± 1.5 µM | 16.1 ± 3.3 µM |  |  |  | 7.3 ± 1 µM |  | 5.7 ± 0.6 µM |  |
| C=C(C)[C@@H]1CC[C@]2(C(=O)n3ccnc3C)CC[C@]3(C)[C@H](CC[C@@H]4[C@@]5(C)CC[C@H](OC(=O)n6ccnc6C)C(C)(C)[C@@H]5CC[C@]43C)[C@@H]12 [Compound 31, 28-(2′-methyl-1H-imidazole-1-yl)-28-oxo-lup-20(29)-en-3β-yl-2′-methyl-1H-imidazole-1-carboxylate] |  | 20.1 ± 3.2 µM |  |  |  | 11.6 ± 0.8 µM |  | 7.8 ± 1.6 µM |  |
| C=C(C)[C@@H]1CC[C@]2(C(=O)n3ccnc3)CC[C@]3(C)[C@H](CC[C@@H]4[C@@]5(C)CC[C@H](OC(=O)n6ccnc6)C(C)(C)[C@@H]5CC[C@]43C)[C@@H]12 [Compound 30, 28-(1H-imidazole-1-yl)-28-oxo-lup-20(29)-en-3β-yl-1H-imidazole-1-carboxylate] | 8.2 ± 0.4 µM | 6 ± 1.2 µM | 150 ± 13.6 µM | 1.1 ± 0.1 µM | 1.9 ± 0.2 µM | 2.9 ± 0.4 µM | 4.4 ± 0.2 µM |  |  |
| C=C(C)[C@@H]1CC[C@]2(C(=O)O)CC[C@]3(C)[C@H](CC[C@@H]4[C@@]5(C)CC[C@H](OC(=O)n6ccnc6)C(C)(C)[C@@H]5CC[C@]43C)[C@@H]12 [Compound 28, 3β-(1H-imidazole-1-carbonyloxy)-lup-20(29)-en-28-oic acid] | 5.1 ± 0.3 µM | 5.2 ± 0.7 µM | 56.8 ± 2.2 µM | 5.6 ± 0.4 µM | 15.6 ± 0.8 µM | 6.2 ± 0.2 µM | 11.8 ± 0.9 µM |  |  |
| C=C(C)[C@@H]1CC[C@]2(COC(=O)n3ccnc3)CC[C@]3(C)[C@H](CC[C@@H]4[C@@]5(C)CC[C@H](O)C(C)(C)[C@@H]5CC[C@]43C)[C@@H]12 [Compound 14, 3β-hydroxy-lup-20(29)-en-28-yl-1H-imidazole-1-carboxylate] | 7.6 ± 0.6 µM | 16.3 ± 1.2 µM | 79.7 ± 6.4 µM | 21 ± 2 µM | 13 ± 1.5 µM | 4.2 ± 0.3 µM | 10.3 ± 1.6 µM |  |  |
| C=C(COC)[C@@H]1CC[C@]2(COC(=O)n3ccnc3)CC[C@]3(C)[C@H](CC[C@@H]4[C@@]5(C)CC[C@H](OC(=O)n6ccnc6)C(C)(C)[C@@H]5CC[C@]43C)[C@@H]12 [Compound 38, 30-methoxylup-20(29)-en-3β,28-di-yl-(1H-imidazole-1-carboxylate)] | > 30 µM | 16.2 ± 1 µM | 170 ± 17.7 µM | 2 ± 0.3 µM | 8.1 ± 1 µM | 19.6 ± 1.6 µM | 7.3 ± 1.1 µM |  |  |
| C[C@@H](C=O)[C@@H]1CC[C@]2(COC(=O)n3ccnc3)CC[C@]3(C)[C@H](CC[C@@H]4[C@@]5(C)CC[C@H](OC(=O)n6ccnc6)C(C)(C)[C@@H]5CC[C@]43C)[C@@H]12 [Compound 43, (20R)-lupane-29-oxo-3β,28-di-yl-(1H-imidazole-1-carboxylate)] | 19.2 ± 1.5 µM | 20.2 ± 1.6 µM | 156 ± 12.5 µM | 6.2 ± 0.7 µM | 6.9 ± 0.3 µM | 26.1 ± 1.1 µM | 7.9 ± 1.3 µM |  |  |
| C=C(COC)[C@@H]1CC[C@]2(COC(=O)n3ccnc3)CC[C@]3(C)[C@H](CC[C@@H]4[C@@]5(C)CC[C@H](O)C(C)(C)[C@@H]5CC[C@]43C)[C@@H]12 [Compound 35, 3β-hydroxy-30-methoxylup-20(29)-en-28-yl-1H-imidazole-1-carboxylate] | 9.8 ± 0.6 µM | 12.2 ± 1.3 µM | 96.4 ± 7.5 µM | 11.4 ± 1.3 µM | 7.7 ± 0.9 µM | 8.3 ± 0.4 µM | 9.5 ± 0.7 µM |  |  |
